Results as given in PubChem BioAssay (NCI).
“And” between values parts separate entries of the source, which are not always exact repeats. Equal entries are not always repeated.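 Cultured in 96-well plates, cells were exposed to test compound for 48 hours across five concentrations. Abbreviation: GI50, concentration required for 50% inhibition of growth. TGI is the concentration that stops growth completely.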

Key:
Assay in all cases: inhibition of tumour cell growth, NCI panel, 48 h
[1] = system: MDA-MB-468 breast
[2] = system: SR leukemia
[3] = system: HCT-15 colon
[4] = system: MOLT-4 leukemia
[5] = system: K-562 leukemia

SMILES | GI50 [1] | TGI [1] | further results
O=[N+]([O-])c1ccc(N(CCO)CCO)c2c1no[n+]2[O-] | 0.625 µM | 2.86 µM | –
O=C1C(Nc2ccccn2)=C(I)C(=O)c2ncccc21 | 1.22 µM | 2.77 µM | –
N#Cc1cccc(Nc2nccc(-c3cnn4ncccc34)n2)c1 | 0.00804 µM | 0.0293 µM | –
O=C(Nc1ccc(-n2cc(-c3ccncc3)c(-c3ccc(Cl)c(O)c3)n2)cc1)c1cc(Cl)cc(Cl)c1 | 6.07 µM | > 100 µM | –
COCCOC(C)C(/C=N/NC(N)=S)=N/NC(N)=S (configuration not stated) | 0.0217 µM | > 100 µM | –
N#CC1=C(N)Oc2c(sc3c(F)cccc23)C1c1ccc([N+](=O)[O-])cc1 (configuration not stated) | 0.0787 µM | 0.902 µM | –
COc1cc(/C=C2\C(=O)N(c3c(Cl)cccc3Cl)c3ccccc32)cc(OC)c1O | 2.27 µM | 12.9 µM | –
CC/C(=C(\c1ccc(O)cc1)c1ccc(OCCNC)cc1)c1ccccc1 | 1.59 µM and 1.53 µM and 1.51 µM | 3.2 µM and 2.98 µM and 3.21 µM | –
CCOC(=O)C(=Cc1ccc(Br)cc1)C(=O)OCC | 1.67 µM | 3.45 µM | –
NC(N)=NC(N)=NCCc1ccccc1 | 6.58 µM and 15 µM | 94.9 µM and > 100 µM | –
NC(=O)c1c(OCc2c(F)cc(Br)cc2F)nsc1NC(=O)NCCCCN1CCCC1 | 1.49 µM | 3.18 µM | –
C[C@]12CC[C@@H]3c4ccc(O)cc4CC[C@H]3[C@@H]1CC[C@@H]2NS(=O)(=O)c1cccc(Br)c1 | 2.43 µM | 11.5 µM | –
Cc1cc(C)cc(C(=O)Nc2cccc(-c3cn(-c4ccc(S(N)(=O)=O)cc4)nn3)c2)c1 | – | – | GI50 [2]: 1.83 µM; TGI [2]: > 10 µM; GI50 [3]: > 10 µM; TGI [3]: > 10 µM; GI50 [4]: 5.58 µM; TGI [4]: > 10 µM; GI50 [5]: 2.92 µM; TGI [5]: > 10 µM
Cc1cc(NC(=O)CCc2ccc(N3C(N)=NC(N)=NC3(C)C)cc2)ccc1S(=O)(=O)F | 0.736 µM | > 82.9 µM | –
Cc1ccc(NC2=C(Cl)C(=O)c3nc(C)ccc3C2=O)cc1 | 0.329 µM | 1.31 µM | –
C=CC(=O)Nc1cc2c(Nc3ccc(OCc4ccccn4)c(Cl)c3)ncnc2cc1OCCN1CCOCC1 | 0.0143 µM | 0.282 µM | –
COC(=O)c1c2c(c(C)[n+]([O-])c1C)C(=O)C(NCc1ccc(F)c(Cl)c1)=CC2=O | 1.12 µM | 3.04 µM | –
COc1cc2c(cc1OC)C(Sc1ccc(F)cc1)c1c(nc(N)c(C#N)c1N)O2 (configuration not stated) | 0.511 µM | 1.84 µM | –
CS(=O)(=O)c1ccc(C(F)(F)F)cc1NC(=O)Nc1cnc(Oc2ccc(-c3cc(Cl)cnc3N)cc2)nc1 | 2.02 µM | 7 µM | –

SMILES | GI50 [1] | TGI [1] | further results
O=C(Oc1ccc([N+](=O)[O-])cc1)N1CCC(C(O)(c2ccc3c(c2)OCO3)c2ccc3c(c2)OCO3)CC1 | > 100 µM | > 100 µM | –
CN(C)CCCC1(c2ccc(F)cc2)OCc2cc(-c3ccc4cc[nH]c4c3)ccc21 (configuration not stated) | 1.75 µM | 3.44 µM | –
Cc1oc2c(c1C(=O)c1ccccc1)C(=O)c1ccccc1C2=O | 1.74 µM | 3.26 µM | –
O=S(=O)(Nc1ccc(Cl)c(C(F)(F)F)c1)c1ccc(-c2cnc(C3CC3)o2)cc1 | 0.144 µM | 3.1 µM | –
C=CCSc1n[nH]c(-c2cccs2)n1 | > 100 µM | > 100 µM | –
C#C[C@]1(O)CC[C@H]2[C@@H]3CC=C4c5nc(Nc6ccc(OC)cc6OC)sc5CC[C@]4(C)[C@H]3CC[C@@]21C | 1.84 µM | 4.08 µM | –
CCN(C)S(=O)(=O)Nc1cccc(Nc2ncnc3cc(NC(=O)CCl)ccc23)c1Cl | 2.34 µM | 6.7 µM | –
N#Cc1ccc(-n2cnc(NC(=O)[C@H]3CCN(C#N)C3)c2)cc1 | 0.337 µM | 2.45 µM | –
CCOC(=O)c1c(C)c2c(n1C)CSc1cc(S(=O)(=O)c3ccccc3)c(=O)[nH]c1-2 | 14.2 µM | > 100 µM | –
Nc1cc(C(F)F)c(-c2nc(N3[C@@H]4CC[C@H]3COC4)nc(N3[C@@H]4CC[C@H]3COC4)n2)cn1 | 0.249 µM | 3.03 µM | –
CCCn1cnc2c(c1=N)C(c1ccc(OC)cc1)c1sc3c(CC)cccc3c1O2 (configuration not stated) | 0.422 µM | 4.27 µM | –
CCn1c2ccccc2c2cc(-n3nncc3-c3ccccc3)ccc21 | 0.437 µM | > 100 µM | –
COc1cc2cc(C(=O)O)[nH]c2cc1OCc1ccccc1 | > 100 µM | > 100 µM | –
Cc1ccnc2c1NC(=O)c1cccnc1N2C1CC1 | > 100 µM | > 100 µM | –
O=C(NNc1nc2cc(F)ccc2n2c(CN3CC4(COC4)C3)ccc12)c1cnccn1 | 0.302 µM | 1.24 µM | –
Cc1cc(N2CCN(C)CC2)nc(NC2CCCC(Nc3ccnc4cc(Cl)ccc34)C2)n1 (configuration not stated) | 1.67 µM | 4.36 µM | –
O=[N+]([O-])c1ccc2nc(N/N=C/c3ccc(O)cc3)sc2c1 | 3.91 µM | 20.8 µM | –
O=C1Nc2ccccc2SC1C1SC(=S)N(Cc2ccccc2)C1=O (configuration not stated) | 1.05 µM | 23.4 µM | –
O=C(N/N=C/c1cc2ccccc2c2ccccc12)c1cc(O)c(O)c(O)c1 | 2.46 µM | 6.88 µM | –
